Experimental data from patent publication US4847273A, “Dihydropyridine derivatives” (Hoffmann-La Roche Inc., priority 1985, dated 1989).

Experiments:
[1] = test system: ^3 H-nifedipine (or ^3 H-nitrendipine) binding, rabbit or guinea pig heart membranes; assay: 3H-Nifedipine binding determination on homogenates or partially-cleaned membranes of rabbit or guinea pig heart (test A); conditions: maximum inhibition of specific binding; nifedipine established as 100%
Procedure: A. ^3 H-Nifedipine binding determination:
The determination is carried out on homogenates or on partially-cleaned membranes of rabbit or guinea pig heart. The reaction mixture (0.3 ml) consists of 0.2-0.8 mg of membrane protein, 1 nM of ^3 H-nifedipine (or 0.25 nM of ^3 H-nitrendipine) and various concentrations of the test substance. The incubation lasts 30 minutes at 25° C. or 37° C. and is stopped by dilution with the incubation buffer; a filtration is subsequently carried out. The filter-bound radioactivity is measured with a scintillation counter. Specific binding, that is, receptor-bound, is defined as the difference between total and unspecific-bound radioactivity. The unspecific binding is determined in the presence of an excess of non-radioactive nifedipine (1 μM).
The activity (potency) of a compound in this test is defined by the IC50 and %maximum inhibition values (%max. inhibition). The IC50 is the substance concentration (in mol/l) which produces a half-maximum inhibition of the specific ^3 H-nifedipine (or ^3 H-nitrendipine) binding. The maximum inhibition of the specific binding is given by the %maximum inhibition value; this value is established as 100% for the reference compound nifedipine. Both parameters are extrapolated from a concentration-binding curve.

[2] = Haemodynamic parameters in the narcotized dog (test B); format: in vivo; conditions: 0.03 mg/kg p.o.
Source text: B. Haemodynamic parameters in the narcotized dog:
The 4 most important measurement parameters (with respective measurement units) of the haemodynamic experiment are: (1) CBF: Coronary Blood Flow (in ml/min)--the velocity of blood flow through the coronary arteries; (2) HR: heart rate (in beats/min)--the heart frequency; (3) BP: blood pressure (in mm Hg)--the blood pressure; and (4) dp/dt: rate of increase in left ventricular pressure (in mm Hg/sec)--the rate of increase of the left ventricular pressure, as a measurement of the contractility force of the heart. The values are given as the %maximum variation from the initial value (Δ%) and the duration of this variation (t) per dosage administered.
There is thus obtained not only an overall picture of the activity of the substance, but also an estimation as to the potential selectivity for a specific part of the circulatory system in the entire organism. After the administration of an anaesthetic, the dog is intubated and respired artificially. Blood pH, pCO2, pO2 and haemoglobin are measured hourly with a blood-gas analyzer. The blood pressure (systolic and diastolic) is measured with a probe in the aorta abdominalis. The heart frequency is recorded by means of a tachometer, which is disengaged from the pressure pulse. For the other measurements the heart must firstly be opened in order that a probe can be inserted in the left ventricle (heart chamber) for the pressure measurements (dp/dt). The coronary blood flow is measured with a flowing probe in the left coronary artery (descendens).

Structure (SMILES)	% max. inhib. [1] [%]	Bp (blood pressure), % maximum variation from the initial value (Δ%) [2] [%]	Bp, duration of variation (t) [2]	CBF (Coronary Blood Flow), % maximum variation from the initial value (Δ%) [2] [%]	CBF, duration of variation (t) [2]	HR (heart rate), % maximum variation from the initial value (Δ%) [2] [%]	HR, duration of variation (t) [2]	dp/dt (rate of increase in left ventricular pressure), % maximum variation from the initial value (Δ%) [2] [%]	dp/dt, duration of variation (t) [2]
COCCN(C)S(=O)(=O)C1=C(C)NC(C)=C(C(=O)OC(C)C)C1c1cccc([N+](=O)[O-])c1 (stereo not drawn) [C, 1,4-dihydro-2,6-dimethyl-5-[(2-methoxyethyl)methylsulfamoyl]-4-(3-nitrophenyl)nicotinic acid isopropyl ester]	100	-32	> 60 '	108	20 '	-11	> 60 '	-16	> 60 '
CCCCN(C)S(=O)(=O)C1=C(C)NC(C)=C(C(=O)OC(C)C)C1c1cccc([N+](=O)[O-])c1 (stereo not drawn) [B, 5-(butylmethylsulfamoyl)-1,4-dihydro-2,6-dimethyl-4-(3-nitrophenyl)nicotinic acid isopropyl ester]	100	-30	24 '	78	40 '	-11	> 30 '	-2	20 '
CCCOCCOC(=O)C1=C(C)NC(C)=C(S(=O)(=O)N(C)C)C1c1cccc([N+](=O)[O-])c1 (stereo not drawn) [A, 5-(dimethylsulfamoyl)-1,4-dihydro-2,6-dimethyl-4-(3-nitrophenyl)nicotinic acid 2-propoxyethyl ester]	100	-55	60 '	50	60 '	-19	40 '	-42	60 '
